How the values were obtained:
[1] = biological target: tyrosine hydroxylase (TH) (Homo sapiens, UniProt P07101); details: concentration of T at which the reaction proceeds at 50% of the maximal rate; cited from earlier work
NE synthesis = details: analogous to the KM of the overall reaction; read-out: concentration of tyrosine at the half-maximal rate of NE synthesis; cited from earlier work
equine laminitis = assay: Oral treatment of horses with laminitis (case examples); type: in vivo, horse
Protocol: The preferred form of practicing the present method will now be described for a horse weighing approximately 500 kg. In practicing the present method, the four main ingredients that are administered to prevent, treat and/or cure laminitis are: choline bitartrate, L-tyrosine, Niacin, and d-Calcium Pantothenate. These ingredients may be administered in corresponding approximate ratios of 40:41:8:16 (by weight). In the preferred embodiment, an approximately 35 day supply of the treatment includes 80 grams of choline bitartrate, 82 grams of L-tyrosine, 16 grams of niacin, and 32 grams of d-calcium pantothenate. Each dose for oral administration contains approximately 1127.5 mg of choline bitartrate, 1155.6 mg of L-tyrosine, 225.5 mg of niacin, and 451.1 mg of d-Calcium pantothenate. Preferably, this dosage is administered twice per day to an affected horse.
A quarter-horse mare first experienced laminitis at age 5 after exposure to septic waste from a failing septic field. This first bout with laminitis lasted roughly two years. At age 9, the mare was left on a heavily grazed pasture for one day and developed laminitis, the second onset of the disease during its life, presumably from exposure to fructans in grass. Transportation of the mare exacerbated the laminitis symptoms. The mare recovered gradually, but spent a lot of time lying down. […]

tyrosine hydroxylase (TH), sequence (P07101 whole entry): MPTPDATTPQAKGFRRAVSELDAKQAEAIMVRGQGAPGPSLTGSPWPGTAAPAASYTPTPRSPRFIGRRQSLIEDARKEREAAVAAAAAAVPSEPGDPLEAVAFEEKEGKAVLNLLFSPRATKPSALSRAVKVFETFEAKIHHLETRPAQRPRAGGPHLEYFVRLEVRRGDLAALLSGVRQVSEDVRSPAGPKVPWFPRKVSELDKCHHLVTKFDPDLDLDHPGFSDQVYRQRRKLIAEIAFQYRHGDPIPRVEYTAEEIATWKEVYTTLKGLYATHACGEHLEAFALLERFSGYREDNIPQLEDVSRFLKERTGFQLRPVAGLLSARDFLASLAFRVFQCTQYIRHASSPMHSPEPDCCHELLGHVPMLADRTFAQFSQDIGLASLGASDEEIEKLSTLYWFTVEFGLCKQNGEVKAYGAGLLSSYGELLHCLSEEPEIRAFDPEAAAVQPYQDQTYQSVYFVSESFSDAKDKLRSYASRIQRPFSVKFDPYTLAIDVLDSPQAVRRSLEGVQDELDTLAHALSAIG

N[C@@H](Cc1ccc(O)cc1)C(=O)O [tyrosine, 4-hydroxyphenylalanine]
Km [1]: ~25 µM | EC50 (NE synthesis): 10 to 40 µM | condition of the mare with laminitis (equine laminitis; Example 1, quarter-horse mare, second onset of laminitis, initial dosing, daily for nearly 90 days): improved the condition | recurrence of laminitis (equine laminitis; Example 2, ten year-old mare, recommended dosage after the bout): did not re-experience laminitis
